Results reported in ChEMBL document CHEMBL4316613, “Recent developments in the synthesis and applications of phosphinic peptide analogs” (Bioorg Med Chem Lett, 2019).
Blank lines part the entries; values can stand above or below the molecule they belong to.

Assays:
[1] = Inhibition of Plasmodium falciparum APN
Leucine aminopeptidase = target: T1, Leucine aminopeptidase (Plasmodium falciparum 3D7, UniProt Q8IL11); assay: Inhibition of Plasmodium falciparum LAP
T1 sequence (Q8IL11 whole entry): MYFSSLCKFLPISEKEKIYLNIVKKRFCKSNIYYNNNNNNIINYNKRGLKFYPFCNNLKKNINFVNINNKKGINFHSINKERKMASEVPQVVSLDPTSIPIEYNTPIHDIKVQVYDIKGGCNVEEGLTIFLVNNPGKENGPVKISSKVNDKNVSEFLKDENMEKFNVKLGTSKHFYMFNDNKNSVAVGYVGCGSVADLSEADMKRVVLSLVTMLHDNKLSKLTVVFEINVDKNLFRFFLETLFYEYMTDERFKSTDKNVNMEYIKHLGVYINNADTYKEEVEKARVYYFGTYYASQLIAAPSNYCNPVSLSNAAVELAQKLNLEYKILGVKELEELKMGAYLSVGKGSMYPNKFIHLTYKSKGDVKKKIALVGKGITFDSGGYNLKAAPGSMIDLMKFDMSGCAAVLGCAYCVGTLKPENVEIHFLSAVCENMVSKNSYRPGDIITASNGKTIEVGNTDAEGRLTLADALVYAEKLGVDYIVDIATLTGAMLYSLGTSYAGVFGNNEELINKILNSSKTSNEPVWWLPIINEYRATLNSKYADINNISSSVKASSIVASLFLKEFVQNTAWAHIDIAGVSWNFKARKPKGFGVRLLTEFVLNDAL

[2] = Inhibition of Neisseria meningitidis APN
[3] = target: T2, Macrophage metalloelastase (Homo sapiens, UniProt P39900); assay: Inhibition of human MMP12
[4] = target: T3, Leukotriene A-4 hydrolase (Homo sapiens, UniProt P09960); assay: Inhibition of human recombinant LTA4H by L-(4-benzoyl)phenylalanyl-beta-naphthylamide fluorigenic substrate by fluorescence based assay
T3 sequence (P09960 whole entry): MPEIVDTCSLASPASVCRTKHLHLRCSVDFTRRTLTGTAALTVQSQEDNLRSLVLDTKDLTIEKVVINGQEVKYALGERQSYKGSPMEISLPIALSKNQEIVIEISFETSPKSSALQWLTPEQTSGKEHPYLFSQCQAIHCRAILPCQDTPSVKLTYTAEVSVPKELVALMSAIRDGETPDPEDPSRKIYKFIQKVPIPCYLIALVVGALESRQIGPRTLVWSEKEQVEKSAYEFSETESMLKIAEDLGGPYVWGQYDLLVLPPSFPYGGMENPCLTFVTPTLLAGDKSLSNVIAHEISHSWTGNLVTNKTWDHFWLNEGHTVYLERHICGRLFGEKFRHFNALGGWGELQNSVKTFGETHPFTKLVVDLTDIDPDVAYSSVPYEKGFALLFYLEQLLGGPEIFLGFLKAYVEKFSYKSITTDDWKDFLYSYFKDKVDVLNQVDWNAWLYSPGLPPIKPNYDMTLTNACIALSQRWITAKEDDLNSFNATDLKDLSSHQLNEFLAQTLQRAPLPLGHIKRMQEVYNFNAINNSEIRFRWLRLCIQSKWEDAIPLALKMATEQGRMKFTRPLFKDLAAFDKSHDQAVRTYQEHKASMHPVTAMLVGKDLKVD

[5] = target: Matrix metalloproteinase-9 (Homo sapiens, UniProt P14780); assay: Inhibition of human MMP9 by photoaffinity probe based assay
Neutrophil collagenase = Neutrophil collagenase (Homo sapiens, UniProt P22894); assay: Inhibition of human MMP8 by photoaffinity probe based assay
Collagenase 3 = Collagenase 3 (Homo sapiens, UniProt P45452); assay: Inhibition of human MMP13 by photoaffinity probe based assay
[6] = target: 72 kDa type IV collagenase (Homo sapiens, UniProt P08253); assay: Inhibition of human MMP2 by photoaffinity probe based assay
[7] = target: T2, Macrophage metalloelastase; assay: Inhibition of human MMP12 by photoaffinity probe based assay
[8] = Inhibition of Helicobacter pylori Csd4

T2 sequence (P39900 whole entry): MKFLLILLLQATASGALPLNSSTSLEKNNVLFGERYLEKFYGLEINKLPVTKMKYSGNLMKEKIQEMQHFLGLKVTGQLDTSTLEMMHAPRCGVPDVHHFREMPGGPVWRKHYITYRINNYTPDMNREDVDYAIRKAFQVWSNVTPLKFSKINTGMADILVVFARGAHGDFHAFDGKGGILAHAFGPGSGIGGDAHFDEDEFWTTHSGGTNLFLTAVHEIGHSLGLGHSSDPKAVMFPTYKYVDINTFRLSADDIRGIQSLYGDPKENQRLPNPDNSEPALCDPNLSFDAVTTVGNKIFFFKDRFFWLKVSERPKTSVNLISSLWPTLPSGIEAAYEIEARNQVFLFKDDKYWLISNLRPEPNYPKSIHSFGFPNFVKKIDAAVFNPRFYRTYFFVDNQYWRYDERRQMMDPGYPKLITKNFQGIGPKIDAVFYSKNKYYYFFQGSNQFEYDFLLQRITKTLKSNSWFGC
Sequence of Neutrophil collagenase (P22894 whole entry): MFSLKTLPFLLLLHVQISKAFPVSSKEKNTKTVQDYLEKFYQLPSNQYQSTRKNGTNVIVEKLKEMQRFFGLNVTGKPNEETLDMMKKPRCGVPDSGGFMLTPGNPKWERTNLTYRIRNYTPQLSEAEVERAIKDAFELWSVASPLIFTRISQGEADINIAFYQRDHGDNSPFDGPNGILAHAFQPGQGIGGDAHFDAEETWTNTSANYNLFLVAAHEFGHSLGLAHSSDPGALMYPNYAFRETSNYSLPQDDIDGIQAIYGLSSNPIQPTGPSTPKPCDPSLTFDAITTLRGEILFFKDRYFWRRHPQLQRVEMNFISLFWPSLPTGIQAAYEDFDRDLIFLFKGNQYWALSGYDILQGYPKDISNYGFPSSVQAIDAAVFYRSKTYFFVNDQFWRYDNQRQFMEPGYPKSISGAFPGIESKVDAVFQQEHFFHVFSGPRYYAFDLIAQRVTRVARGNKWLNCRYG
Sequence of Matrix metalloproteinase-9 (P14780 whole entry): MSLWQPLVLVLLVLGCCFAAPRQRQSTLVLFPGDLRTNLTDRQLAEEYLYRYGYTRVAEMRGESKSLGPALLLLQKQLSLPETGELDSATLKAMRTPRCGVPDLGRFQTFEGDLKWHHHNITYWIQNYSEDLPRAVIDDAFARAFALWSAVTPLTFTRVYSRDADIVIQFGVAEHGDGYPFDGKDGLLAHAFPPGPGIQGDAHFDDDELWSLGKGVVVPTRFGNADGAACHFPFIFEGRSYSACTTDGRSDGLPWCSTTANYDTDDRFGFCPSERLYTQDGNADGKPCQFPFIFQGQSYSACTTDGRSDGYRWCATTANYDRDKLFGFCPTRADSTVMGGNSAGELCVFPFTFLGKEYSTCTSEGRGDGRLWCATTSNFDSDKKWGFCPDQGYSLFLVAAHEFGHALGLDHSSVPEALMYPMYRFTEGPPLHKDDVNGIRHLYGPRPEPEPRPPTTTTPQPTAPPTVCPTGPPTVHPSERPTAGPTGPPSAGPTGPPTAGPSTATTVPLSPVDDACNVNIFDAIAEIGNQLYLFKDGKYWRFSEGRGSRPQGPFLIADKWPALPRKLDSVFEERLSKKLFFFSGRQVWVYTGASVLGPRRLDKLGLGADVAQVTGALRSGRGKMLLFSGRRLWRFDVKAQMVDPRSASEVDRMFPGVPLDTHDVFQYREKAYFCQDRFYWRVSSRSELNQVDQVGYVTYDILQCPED
Sequence of 72 kDa type IV collagenase (P08253 whole entry): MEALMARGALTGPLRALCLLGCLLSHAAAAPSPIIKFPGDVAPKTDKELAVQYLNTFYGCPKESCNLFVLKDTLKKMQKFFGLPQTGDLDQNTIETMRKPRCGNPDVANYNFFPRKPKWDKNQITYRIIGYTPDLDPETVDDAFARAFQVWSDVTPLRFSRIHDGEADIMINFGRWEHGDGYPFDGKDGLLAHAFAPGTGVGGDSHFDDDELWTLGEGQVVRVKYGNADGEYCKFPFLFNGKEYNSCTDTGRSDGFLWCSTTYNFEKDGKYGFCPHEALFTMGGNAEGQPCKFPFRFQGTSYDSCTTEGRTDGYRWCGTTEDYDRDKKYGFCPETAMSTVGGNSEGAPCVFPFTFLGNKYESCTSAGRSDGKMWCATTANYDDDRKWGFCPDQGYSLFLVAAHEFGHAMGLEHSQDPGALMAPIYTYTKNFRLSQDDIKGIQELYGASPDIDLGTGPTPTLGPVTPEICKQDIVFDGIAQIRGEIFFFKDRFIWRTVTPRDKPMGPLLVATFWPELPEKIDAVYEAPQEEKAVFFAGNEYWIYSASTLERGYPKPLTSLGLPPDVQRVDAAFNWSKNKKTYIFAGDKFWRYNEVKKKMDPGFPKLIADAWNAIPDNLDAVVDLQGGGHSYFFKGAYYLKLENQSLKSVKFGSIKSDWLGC

Compound: CC[N+]1=C(/C=C/C=C/C=C2/N(CCCCCC(=O)NCCCOCCOCCOCCCNC(=O)[C@H](CCC(=O)O)NC(=O)[C@H](C)NC(=O)[C@H](Cc3cc(-c4ccc(-c5cccc(Cl)c5)cc4)no3)CP(=O)(O)c3ccc(Br)cc3)c3ccc4c(S(=O)(=O)O)cc(S(=O)(=O)O)cc4c3C2(C)C)C(C)(C)c2c1ccc1c(S(=O)(=O)[O-])cc(S(=O)(=O)O)cc21
Ki [3]: 0.9 nM

Compound: CC(=O)N1CCC(CP(=O)(O)[C@H](C)N)(C(=O)N[C@@H](C)C(=O)O)CC1
Ki [4]: 5.3 nM

Compound: [3H]CC([3H])C(=O)NCCCOCCOCCOCCCNC(=O)[C@H](CO)NC(=O)[C@H](CC)NC(=O)[C@H](Cc1cc(-c2ccc(C3(C(F)(F)F)N=N3)cc2)no1)CP(=O)(O)c1ccccc1 (stereo not given in full)
Ki [5]: 2.6 nM
Ki (Neutrophil collagenase): 0.6 nM
Ki (Collagenase 3): 1.6 nM
Ki [6]: 0.5 nM
Ki [7]: 1 nM

Compound: CC(=O)N[C@H](CCP(=O)(O)CC(CCC[C@@H](N)C(=O)O)C(=O)O)C(=O)O (stereo not given in full)
Ki [8]: 1500 nM

Compound: C[C@H](NC(=O)C1(CP(=O)(O)[C@H](C)N)CCCC1)C(=O)O
Ki [4]: 4.6 nM

Further lines, with some results ahead:

Ki (Leucine aminopeptidase): 10 nM
Ki [2]: 54 nM
Compound: NC(CCc1ccccc1)P(=O)(O)CC(Cc1ccc(O)cc1)C(=O)O (stereo not given)
Ki [1]: 232 nM

Ki [3]: 0.26 nM
Compound: C[C@H](NC(=O)[C@H](Cc1cc(-c2ccc(-c3cccc(Cl)c3)cc2)no1)CP(=O)(O)c1ccc(Br)cc1)C(=O)N[C@@H](CCC(=O)O)C(N)=O

Ki (Leucine aminopeptidase): 13 nM
Ki [2]: 302 nM
Compound: NC(CCc1ccccc1)P(=O)(O)CC(Cc1ccccc1)C(=O)O (stereo not given)
